Measurements reported in ChEMBL document CHEMBL4813927, “Discovery of Venturicidin Congeners and Identification of the Biosynthetic Gene Cluster from Streptomyces sp. NRRL S-4” (J Nat Prod, 2021).
Counter-ions that a name gives are not always drawn.

Assays:
MV4-11 = test: Cytotoxicity against human MV4-11 cells assessed as inhibition of cell growth measured after 72 hrs by Celltiter-Glo assay; format: functional, cell-based; details: MV4-11, 72 h
MDA-MB-468 = test: Cytotoxicity against human MDA-MB-468 cells assessed as inhibition of cell growth measured after 72 hrs by Celltiter-Glo assay; format: functional, cell-based; details: MDA-MB-468, 72 h
K562 = test: Cytotoxicity against human K562 cells assessed as inhibition of cell growth measured after 72 hrs by Celltiter-Glo assay; format: functional, cell-based; details: K562, 72 h
Hep 3B2 = test: Cytotoxicity against human Hep3B cells assessed as inhibition of cell growth measured after 72 hrs by Celltiter-Glo assay; format: functional, cell-based
B16 = test: Cytotoxicity against mouse B16 cells assessed as inhibition of cell growth measured after 72 hrs by Celltiter-Glo assay; format: functional, cell-based; details: B16, 72 h
[1] = target: T1, Receptor-type tyrosine-protein kinase FLT3 (Homo sapiens, UniProt P36888); test: Inhibition of FLT3 (unknown origin) using MBP as substrate incubated for 40 mins in presence of ATP by ADP-Glo assay
T1 sequence (P36888 whole entry): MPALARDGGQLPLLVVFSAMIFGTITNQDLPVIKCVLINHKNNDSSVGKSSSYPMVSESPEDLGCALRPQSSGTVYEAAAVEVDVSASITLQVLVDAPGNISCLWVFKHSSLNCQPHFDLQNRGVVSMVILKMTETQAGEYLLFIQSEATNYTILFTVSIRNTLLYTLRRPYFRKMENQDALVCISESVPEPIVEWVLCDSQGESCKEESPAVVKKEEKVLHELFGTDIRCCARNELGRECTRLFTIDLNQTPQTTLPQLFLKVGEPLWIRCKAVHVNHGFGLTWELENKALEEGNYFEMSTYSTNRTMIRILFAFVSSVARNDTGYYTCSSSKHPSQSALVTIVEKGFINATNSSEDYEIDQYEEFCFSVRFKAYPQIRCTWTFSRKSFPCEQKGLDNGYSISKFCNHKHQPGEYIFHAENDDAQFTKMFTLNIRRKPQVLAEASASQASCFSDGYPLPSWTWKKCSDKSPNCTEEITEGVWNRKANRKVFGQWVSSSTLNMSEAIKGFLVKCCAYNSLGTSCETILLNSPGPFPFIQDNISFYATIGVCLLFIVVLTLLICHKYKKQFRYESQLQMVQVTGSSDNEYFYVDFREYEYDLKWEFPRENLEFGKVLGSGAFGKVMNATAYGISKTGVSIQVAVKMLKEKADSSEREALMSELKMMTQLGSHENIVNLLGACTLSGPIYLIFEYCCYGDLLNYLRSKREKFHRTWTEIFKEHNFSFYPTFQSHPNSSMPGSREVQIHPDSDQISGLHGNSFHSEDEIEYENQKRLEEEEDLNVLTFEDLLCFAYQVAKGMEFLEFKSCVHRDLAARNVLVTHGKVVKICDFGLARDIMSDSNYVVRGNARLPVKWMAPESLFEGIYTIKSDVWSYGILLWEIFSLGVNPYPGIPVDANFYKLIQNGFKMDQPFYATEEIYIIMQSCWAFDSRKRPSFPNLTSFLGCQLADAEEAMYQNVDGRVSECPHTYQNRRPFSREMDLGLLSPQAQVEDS

SMILES: CCC(=O)[C@@H](C)[C@H](O)[C@H](C)C[C@@H](C)[C@H]1OC(=O)C[C@@]2(O)CC=C(C)[C@H](O2)/C(C)=C/CCC[C@@H](O[C@H]2C[C@@H](OC(N)=O)[C@H](O)[C@@H](C)O2)/C=C/[C@H](C)C[C@H]1C
- IC50 (MV4-11): 60 µM

SMILES: CCC(=O)[C@@H](C)[C@@H](O)[C@H](C)C[C@@H](C)[C@H]1OC(=O)C[C@@]2(O)CC=C(C)[C@H](O2)/C(C)=C/CCC[C@@H](O[C@H]2C[C@@H](OC(N)=O)[C@H](O)[C@@H](C)O2)/C=C/[C@H](C)C[C@H]1C
- IC50 (MV4-11): 0.09 µM
- IC50 (MDA-MB-468): 8.3 µM
- IC50 (K562): 5.8 µM
- IC50 (Hep 3B2): 15 µM
- IC50 (B16): 12 µM
- IC50 [1]: 64 µM

SMILES: CCC(=O)[C@@H](C)[C@@H](O)[C@H](C)C[C@@H](C)[C@H]1OC(=O)C[C@@]2(OC)CC=C(C)[C@H](O2)/C(C)=C/CCC[C@@H](O[C@H]2C[C@@H](OC(N)=O)[C@H](O)[C@@H](C)O2)/C=C/[C@H](C)C[C@H]1C
- IC50 (MV4-11): 4.1 µM

SMILES: COc1cccc2c1C(=O)c1c(O)c3c(c(O)c1C2=O)C[C@@](O)(C(=O)CO)C[C@@H]3O[C@H]1C[C@H](N)[C@H](O)[C@H](C)O1 [DOXORUBICIN HYDROCHLORIDE]
- IC50 (MV4-11): 0.14 µM

SMILES: CCC(=O)[C@@H](C)[C@@H](O)[C@H](C)C[C@@H](C)[C@H]1OC(=O)C[C@@]2(O)CC[C@H](C)[C@H](O2)/C(C)=C/CCC[C@@H](O[C@H]2C[C@@H](OC(N)=O)[C@H](O)[C@@H](C)O2)/C=C/[C@H](C)C[C@H]1C
- IC50 (MV4-11): 0.94 µM
